Values quoted from earlier work as cited in patent US20060024806A1, “Mycolactone locus: an assembly line for producing novel polyketides, therapeutic and prophylactic uses” (priority 2003, published 2006).

System: guinea pig model of the disease
Details: purified mycolactone injected subcutaneously

**Q.** With `CC(=C\C=C\C(C)=C\[C@H](O)[C@@H](O)C[C@H](C)O)/C=C(C)/C=C/C(=O)O[C@H]1CCCC(=O)O[C@@H]([C@@H](C)C/C(C)=C/[C@@H](C)[C@H](O)C[C@@H](C)O)C/C=C(\C)C[C@@H]1C` [mycolactone] as the compound, how does the pathology after injection read?
**A.** The pathology after injection was “reproduces the natural pathology”.
